Measured values: PubChem BioAssay (NCI)
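Grown in 96-well plates, cells were treated for 48 hours with each compound at five concentrations. Insufficient inhibition: endpoint recorded as highest concentration tested. The concentration for 50% growth inhibition is given as GI50. TGI: concentration producing complete growth inhibition.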

How the values were obtained:
Experiment in all cases: growth of human tumour cells (NCI), 48 h
786-0 renal = system: 786-0 renal
A498 renal = system: A498 renal
A549 NSCLC = system: A549 NSCLC
ACHN renal = system: ACHN renal
BT-549 breast = system: BT-549 breast
CAKI-1 renal = system: CAKI-1 renal
CCRF-CEM leukemia = system: CCRF-CEM leukemia
COLO 205 colon = system: COLO 205 colon
DU-145 prostate = system: DU-145 prostate
EKVX NSCLC = system: EKVX NSCLC
HCC-2998 colon = system: HCC-2998 colon
HCT-116 colon = system: HCT-116 colon
HCT-15 colon = system: HCT-15 colon
HL-60(TB) leukemia = system: HL-60(TB) leukemia
HOP-62 NSCLC = system: HOP-62 NSCLC
HOP-92 NSCLC = system: HOP-92 NSCLC
HS 578T breast = system: HS 578T breast
HT29 colon = system: HT29 colon
IGROV1 ovarian = system: IGROV1 ovarian
K-562 leukemia = system: K-562 leukemia
KM12 colon = system: KM12 colon
LOX IMVI melanoma = system: LOX IMVI melanoma
M14 melanoma = system: M14 melanoma
MALME-3M melanoma = system: MALME-3M melanoma
MCF7 breast = system: MCF7 breast
MDA-MB-231 breast = system: MDA-MB-231 breast
MDA-MB-435 = system: MDA-MB-435
MOLT-4 leukemia = system: MOLT-4 leukemia
NCI-H226 lung = system: NCI-H226 lung
NCI-H23 lung = system: NCI-H23 lung
NCI-H460 lung = system: NCI-H460 lung
NCI-H522 lung = system: NCI-H522 lung
NCI/ADR-RES ovarian = system: NCI/ADR-RES ovarian
OVCAR-3 ovarian = system: OVCAR-3 ovarian
OVCAR-4 ovarian = system: OVCAR-4 ovarian
OVCAR-5 ovarian = system: OVCAR-5 ovarian
OVCAR-8 ovarian = system: OVCAR-8 ovarian
PC-3 prostate = system: PC-3 prostate
RPMI-8226 leukemia = system: RPMI-8226 leukemia
RXF 393 renal = system: RXF 393 renal
SF-268 CNS = system: SF-268 CNS
SF-295 CNS = system: SF-295 CNS
SF-539 CNS = system: SF-539 CNS
SK-MEL-2 melanoma = system: SK-MEL-2 melanoma
SK-MEL-28 melanoma = system: SK-MEL-28 melanoma
SK-MEL-5 melanoma = system: SK-MEL-5 melanoma
SK-OV-3 ovarian = system: SK-OV-3 ovarian
SN12C renal = system: SN12C renal
SNB-19 CNS = system: SNB-19 CNS
SNB-75 CNS = system: SNB-75 CNS
SR leukemia = system: SR leukemia
SW-620 colon = system: SW-620 colon
T-47D breast = system: T-47D breast
TK-10 renal = system: TK-10 renal
U251 CNS = system: U251 CNS
UACC-257 melanoma = system: UACC-257 melanoma
UACC-62 melanoma = system: UACC-62 melanoma
UO-31 renal = system: UO-31 renal
MDA-N = system: MDA-N

SMILES: CCN1C(=O)N(CC)C2C1NN=c1s/c(=C3\C(=O)Nc4ccccc43)c(=O)n12 (stereo not given)
- GI50 (786-0 renal): 0.588 µM
- TGI (786-0 renal): 24.6 µM
- GI50 (A498 renal): 0.193 µM
- TGI (A498 renal): 0.728 µM
- GI50 (A549 NSCLC): 0.812 µM
- TGI (A549 NSCLC): > 100 µM
- GI50 (ACHN renal): 0.606 µM
- TGI (ACHN renal): > 47.6 µM
- GI50 (BT-549 breast): 1.06 µM
- TGI (BT-549 breast): 32.3 µM
- GI50 (CAKI-1 renal): 0.404 µM
- TGI (CAKI-1 renal): 34.8 µM
- GI50 (CCRF-CEM leukemia): 0.385 µM
- TGI (CCRF-CEM leukemia): 27.1 µM
- GI50 (COLO 205 colon): 0.445 µM
- TGI (COLO 205 colon): > 57.5 µM
- GI50 (DU-145 prostate): 0.492 µM
- TGI (DU-145 prostate): 33.6 µM
- GI50 (EKVX NSCLC): 2.12 µM
- TGI (EKVX NSCLC): > 100 µM
- GI50 (HCC-2998 colon): 1.47 µM
- TGI (HCC-2998 colon): 31.7 µM
- GI50 (HCT-116 colon): 0.485 µM
- TGI (HCT-116 colon): > 61.6 µM
- GI50 (HCT-15 colon): 0.41 µM
- TGI (HCT-15 colon): > 100 µM
- GI50 (HL-60(TB) leukemia): 0.296 µM
- TGI (HL-60(TB) leukemia): 0.91 µM
- GI50 (HOP-62 NSCLC): 0.734 µM
- TGI (HOP-62 NSCLC): 25.8 µM
- GI50 (HOP-92 NSCLC): 0.598 µM
- TGI (HOP-92 NSCLC): 32.5 µM
- GI50 (HS 578T breast): 0.347 µM
- TGI (HS 578T breast): 17.7 µM
- GI50 (HT29 colon): 0.374 µM
- TGI (HT29 colon): > 100 µM
- GI50 (IGROV1 ovarian): 0.616 µM
- TGI (IGROV1 ovarian): 24.6 µM
- GI50 (K-562 leukemia): 0.343 µM
- TGI (K-562 leukemia): > 100 µM
- GI50 (KM12 colon): 0.452 µM
- TGI (KM12 colon): > 100 µM
- GI50 (LOX IMVI melanoma): 0.625 µM
- TGI (LOX IMVI melanoma): 29.2 µM
- GI50 (M14 melanoma): 0.33 µM
- TGI (M14 melanoma): 3.36 µM
- GI50 (MALME-3M melanoma): 0.557 µM
- TGI (MALME-3M melanoma): 38.4 µM
- GI50 (MCF7 breast): 0.354 µM
- TGI (MCF7 breast): > 89.7 µM
- GI50 (MDA-MB-231 breast): 2.41 µM
- TGI (MDA-MB-231 breast): 49.9 µM
- GI50 (MDA-MB-435): 0.147 µM
- TGI (MDA-MB-435): 0.357 µM
- GI50 (MOLT-4 leukemia): 0.549 µM
- TGI (MOLT-4 leukemia): > 100 µM
- GI50 (NCI-H226 lung): 0.544 µM
- TGI (NCI-H226 lung): 55.5 µM
- GI50 (NCI-H23 lung): 0.752 µM
- TGI (NCI-H23 lung): 24 µM
- GI50 (NCI-H460 lung): 0.397 µM
- TGI (NCI-H460 lung): > 100 µM
- GI50 (NCI-H522 lung): 0.373 µM
- TGI (NCI-H522 lung): > 43.6 µM
- GI50 (NCI/ADR-RES ovarian): 5.67 µM
- TGI (NCI/ADR-RES ovarian): > 100 µM
- GI50 (OVCAR-3 ovarian): 0.331 µM
- TGI (OVCAR-3 ovarian): 3.02 µM
- GI50 (OVCAR-4 ovarian): > 59.1 µM
- TGI (OVCAR-4 ovarian): > 100 µM
- GI50 (OVCAR-5 ovarian): 2.31 µM
- TGI (OVCAR-5 ovarian): > 100 µM
- GI50 (OVCAR-8 ovarian): 0.639 µM
- TGI (OVCAR-8 ovarian): > 53.7 µM
- GI50 (PC-3 prostate): 0.393 µM
- TGI (PC-3 prostate): > 100 µM
- GI50 (RPMI-8226 leukemia): 0.306 µM
- TGI (RPMI-8226 leukemia): 6.06 µM
- GI50 (RXF 393 renal): 0.279 µM
- TGI (RXF 393 renal): 1.05 µM
- GI50 (SF-268 CNS): 10.6 µM
- TGI (SF-268 CNS): 45.1 µM
- GI50 (SF-295 CNS): 0.463 µM
- TGI (SF-295 CNS): 12.4 µM
- GI50 (SF-539 CNS): 0.309 µM
- TGI (SF-539 CNS): 1.7 µM
- GI50 (SK-MEL-2 melanoma): 1.34 µM
- TGI (SK-MEL-2 melanoma): 30 µM
- GI50 (SK-MEL-28 melanoma): 0.891 µM
- TGI (SK-MEL-28 melanoma): > 100 µM
- GI50 (SK-MEL-5 melanoma): 0.426 µM
- TGI (SK-MEL-5 melanoma): > 100 µM
- GI50 (SK-OV-3 ovarian): 0.781 µM
- TGI (SK-OV-3 ovarian): 29.6 µM
- GI50 (SN12C renal): 0.6 µM
- TGI (SN12C renal): > 100 µM
- GI50 (SNB-19 CNS): 0.633 µM
- TGI (SNB-19 CNS): 32.3 µM
- GI50 (SNB-75 CNS): < 0.0447 µM
- TGI (SNB-75 CNS): 0.429 µM
- GI50 (SR leukemia): 0.292 µM
- TGI (SR leukemia): > 62 µM
- GI50 (SW-620 colon): 0.409 µM
- TGI (SW-620 colon): > 100 µM
- GI50 (T-47D breast): 0.42 µM
- TGI (T-47D breast): > 100 µM
- GI50 (TK-10 renal): 9.37 µM
- TGI (TK-10 renal): 32.6 µM
- GI50 (U251 CNS): 0.556 µM
- TGI (U251 CNS): 21 µM
- GI50 (UACC-257 melanoma): 25.2 µM
- TGI (UACC-257 melanoma): > 100 µM
- GI50 (UACC-62 melanoma): 0.371 µM
- TGI (UACC-62 melanoma): 23.9 µM
- GI50 (UO-31 renal): 1.09 µM
- TGI (UO-31 renal): > 100 µM

SMILES: Cc1[nH]n(-c2nc(-c3ccccc3)cc(=O)[nH]2)c(=O)c1CCO
- TGI (786-0 renal): > 100 µM
- TGI (A549 NSCLC): > 100 µM
- TGI (ACHN renal): > 100 µM
- TGI (CAKI-1 renal): > 100 µM
- TGI (CCRF-CEM leukemia): > 100 µM
- TGI (COLO 205 colon): > 100 µM
- TGI (DU-145 prostate): > 100 µM
- TGI (EKVX NSCLC): > 100 µM
- TGI (HCC-2998 colon): > 100 µM
- TGI (HCT-116 colon): > 100 µM
- TGI (HCT-15 colon): > 100 µM
- TGI (HL-60(TB) leukemia): > 100 µM
- TGI (HOP-62 NSCLC): > 100 µM
- TGI (HOP-92 NSCLC): > 100 µM
- TGI (HS 578T breast): > 100 µM
- TGI (HT29 colon): > 100 µM
- TGI (IGROV1 ovarian): > 100 µM
- TGI (K-562 leukemia): > 100 µM
- TGI (KM12 colon): > 100 µM
- TGI (LOX IMVI melanoma): > 100 µM
- TGI (M14 melanoma): > 100 µM
- TGI (MALME-3M melanoma): > 100 µM
- TGI (MCF7 breast): > 100 µM
- TGI (MDA-MB-231 breast): > 100 µM
- TGI (MDA-MB-435): > 100 µM
- TGI (MDA-N): > 100 µM
- TGI (MOLT-4 leukemia): > 100 µM
- TGI (NCI-H226 lung): > 100 µM
- TGI (NCI-H23 lung): > 100 µM
- TGI (NCI-H460 lung): > 100 µM
- TGI (NCI/ADR-RES ovarian): > 100 µM
- TGI (OVCAR-3 ovarian): > 100 µM
- TGI (OVCAR-4 ovarian): > 100 µM
- TGI (OVCAR-5 ovarian): > 100 µM
- TGI (OVCAR-8 ovarian): > 100 µM
- TGI (PC-3 prostate): > 100 µM
- TGI (RPMI-8226 leukemia): > 100 µM
- TGI (RXF 393 renal): > 100 µM
- TGI (SF-268 CNS): > 100 µM
- TGI (SF-295 CNS): > 100 µM
- TGI (SF-539 CNS): > 100 µM
- TGI (SK-MEL-2 melanoma): > 100 µM
- TGI (SK-MEL-28 melanoma): > 100 µM
- TGI (SK-MEL-5 melanoma): > 100 µM
- TGI (SK-OV-3 ovarian): > 100 µM
- TGI (SN12C renal): > 100 µM
- TGI (SNB-19 CNS): > 100 µM
- TGI (SW-620 colon): > 100 µM
- TGI (T-47D breast): > 100 µM
- TGI (TK-10 renal): > 100 µM
- TGI (U251 CNS): > 100 µM
- TGI (UACC-257 melanoma): > 100 µM
- TGI (UACC-62 melanoma): > 100 µM
- TGI (UO-31 renal): > 100 µM
